Activity calls are given as the source filed them. No rule for the calls is given here.
System: CCRIS mutagenicity, Ames/micronucleus/aberration tests
Experiment: CCRIS mutagenicity studies

SMILES: CCC1CO1 (stereo not drawn)
- mutagenic call (End Point: IN VITRO CHROMOSOMAL ABERRATIONS, Test System: CHO CELLS, Metabolic Activation: NONE): inactive; negative; authors report a positive response at the highest dose but few cells c
- mutagenic call (End Point: IN VITRO CHROMOSOMAL ABERRATIONS, Test System: HUMAN PERIPHERAL LYMPHOCYTES, Metabolic Activation: NONE, Method: FISH (DUAL COLOR FOR CHROMOSOMES 7, 8, 12 AND X)): active; positive (hyperdiploidy of chromosomes 12 and x)
- mutagenic call (End Point: IN VITRO MICRONUCLEUS, Test System: HUMAN PERIPHERAL LYMPHOCYTES, Metabolic Activation: NONE): active; positive
- mutagenic call (Test System: AMES SALMONELLA TYPHIMURIUM, Strain/Indicator: TA98, Metabolic Activation: HAMSTER, LIVER, S-9, AROCLOR 1254, Method: PREINCUBATION): inactive; negative
- mutagenic call (Test System: AMES SALMONELLA TYPHIMURIUM, Strain/Indicator: TA98, Metabolic Activation: NONE, Method: FLUCTUATION (MICROTITER)): inactive; negative
- mutagenic call (Test System: AMES SALMONELLA TYPHIMURIUM, Strain/Indicator: TA98, Metabolic Activation: NONE, Method: PREINCUBATION): inactive; negative
- mutagenic call (Test System: AMES SALMONELLA TYPHIMURIUM, Strain/Indicator: TA98, Metabolic Activation: NONE, Method: STANDARD PLATE): inactive; negative
- mutagenic call (Test System: AMES SALMONELLA TYPHIMURIUM, Strain/Indicator: TA98, Metabolic Activation: RAT LIVER S-9, AROCLOR 1254, Method: FLUCTUATION (MICROTITER)): inactive; negative
- mutagenic call (Test System: AMES SALMONELLA TYPHIMURIUM, Strain/Indicator: TA98, Metabolic Activation: RAT, LIVER, S-9, AROCLOR 1254, Method: PREINCUBATION): inactive; negative
- mutagenic call (Test System: AMES SALMONELLA TYPHIMURIUM, Strain/Indicator: TA100, Metabolic Activation: HAMSTER, LIVER, S-9, AROCLOR 1254, Method: PREINCUBATION): active; positive
- mutagenic call (Test System: AMES SALMONELLA TYPHIMURIUM, Strain/Indicator: TA100, Metabolic Activation: NONE, Method: PREINCUBATION): active; positive
- mutagenic call (Test System: AMES SALMONELLA TYPHIMURIUM, Strain/Indicator: TA100, Metabolic Activation: RAT, LIVER, S-9, AROCLOR 1254, Method: PREINCUBATION): active; positive
- mutagenic call (Test System: AMES SALMONELLA TYPHIMURIUM, Strain/Indicator: TA1535, Metabolic Activation: HAMSTER, LIVER, S-9, AROCLOR 1254, Method: PREINCUBATION): active; positive
- mutagenic call (Test System: AMES SALMONELLA TYPHIMURIUM, Strain/Indicator: TA1535, Metabolic Activation: NONE, Method: PREINCUBATION): active; positive
- mutagenic call (Test System: AMES SALMONELLA TYPHIMURIUM, Strain/Indicator: TA1535, Metabolic Activation: NONE, Method: STANDARD PLATE): active; positive
- mutagenic call (Test System: AMES SALMONELLA TYPHIMURIUM, Strain/Indicator: TA1535, Metabolic Activation: RAT, LIVER, S-9, AROCLOR 1254, Method: PREINCUBATION): active; positive
- mutagenic call (Test System: AMES SALMONELLA TYPHIMURIUM, Strain/Indicator: TA1537, Metabolic Activation: HAMSTER, LIVER, S-9, AROCLOR 1254, Method: PREINCUBATION): inactive; negative
- mutagenic call (Test System: AMES SALMONELLA TYPHIMURIUM, Strain/Indicator: TA1537, Metabolic Activation: NONE, Method: FLUCTUATION (MICROTITER)): inactive; negative
- mutagenic call (Test System: AMES SALMONELLA TYPHIMURIUM, Strain/Indicator: TA1537, Metabolic Activation: NONE, Method: PREINCUBATION): inactive; negative
- mutagenic call (Test System: AMES SALMONELLA TYPHIMURIUM, Strain/Indicator: TA1537, Metabolic Activation: RAT LIVER S-9, AROCLOR 1254, Method: FLUCTUATION (MICROTITER)): inactive; negative
- mutagenic call (Test System: AMES SALMONELLA TYPHIMURIUM, Strain/Indicator: TA1537, Metabolic Activation: RAT, LIVER, S-9, AROCLOR 1254, Method: PREINCUBATION): inactive; negative
- mutagenic call (Test System: AMES SALMONELLA TYPHIMURIUM, Strain/Indicator: TA7001, Metabolic Activation: NONE, Method: FLUCTUATION (MICROTITER)): inactive; negative
- mutagenic call (Test System: AMES SALMONELLA TYPHIMURIUM, Strain/Indicator: TA7001, Metabolic Activation: RAT LIVER S-9, AROCLOR 1254, Method: FLUCTUATION (MICROTITER)): inactive; negative
- mutagenic call (Test System: AMES SALMONELLA TYPHIMURIUM, Strain/Indicator: TA7002, Metabolic Activation: NONE, Method: FLUCTUATION (MICROTITER)): inactive; negative
- mutagenic call (Test System: AMES SALMONELLA TYPHIMURIUM, Strain/Indicator: TA7002, Metabolic Activation: RAT LIVER S-9, AROCLOR 1254, Method: FLUCTUATION (MICROTITER)): inactive; negative
- mutagenic call (Test System: AMES SALMONELLA TYPHIMURIUM, Strain/Indicator: TA7003, Metabolic Activation: NONE, Method: FLUCTUATION (MICROTITER)): inactive; negative
- mutagenic call (Test System: AMES SALMONELLA TYPHIMURIUM, Strain/Indicator: TA7003, Metabolic Activation: RAT LIVER S-9, AROCLOR 1254, Method: FLUCTUATION (MICROTITER)): inactive; negative
- mutagenic call (Test System: AMES SALMONELLA TYPHIMURIUM, Strain/Indicator: TA7004, Metabolic Activation: NONE, Method: FLUCTUATION (MICROTITER)): active; positive
- mutagenic call (Test System: AMES SALMONELLA TYPHIMURIUM, Strain/Indicator: TA7004, Metabolic Activation: RAT LIVER S-9, AROCLOR 1254, Method: FLUCTUATION (MICROTITER)): inactive; negative
- mutagenic call (Test System: AMES SALMONELLA TYPHIMURIUM, Strain/Indicator: TA7005, Metabolic Activation: NONE, Method: FLUCTUATION (MICROTITER)): inactive; negative
- mutagenic call (Test System: AMES SALMONELLA TYPHIMURIUM, Strain/Indicator: TA7005, Metabolic Activation: RAT LIVER S-9, AROCLOR 1254, Method: FLUCTUATION (MICROTITER)): inactive; negative
- mutagenic call (Test System: AMES SALMONELLA TYPHIMURIUM, Strain/Indicator: TA7006, Metabolic Activation: NONE, Method: FLUCTUATION (MICROTITER)): inactive; negative
- mutagenic call (Test System: AMES SALMONELLA TYPHIMURIUM, Strain/Indicator: TA7006, Metabolic Activation: RAT LIVER S-9, AROCLOR 1254, Method: FLUCTUATION (MICROTITER)): inactive; negative
- mutagenic call (Test System: E. COLI, Strain/Indicator: WP2 UVRA, Metabolic Activation: HAMSTER, LIVER, S-9, AROCLOR 1254, Method: PREINCUBATION): inactive; negative
- mutagenic call (Test System: E. COLI, Strain/Indicator: WP2 UVRA, Metabolic Activation: HAMSTER, LIVER, S-9, AROCLOR 1254, Method: STANDARD PLATE): inactive; negative
- mutagenic call (Test System: E. COLI, Strain/Indicator: WP2 UVRA, Metabolic Activation: HAMSTER, LIVER, S-9, Method: STANDARD PLATE): inactive; negative
- mutagenic call (Test System: E. COLI, Strain/Indicator: WP2 UVRA, Metabolic Activation: MOUSE, LIVER, S-9, AROCLOR 1254, Method: PREINCUBATION): inactive; negative
- mutagenic call (Test System: E. COLI, Strain/Indicator: WP2 UVRA, Metabolic Activation: MOUSE, LIVER, S-9, AROCLOR 1254, Method: STANDARD PLATE): inactive; negative
- mutagenic call (Test System: E. COLI, Strain/Indicator: WP2 UVRA, Metabolic Activation: MOUSE, LIVER, S-9, Method: PREINCUBATION): inactive; negative
- mutagenic call (Test System: E. COLI, Strain/Indicator: WP2 UVRA, Metabolic Activation: MOUSE, LIVER, S-9, Method: STANDARD PLATE): inactive; negative
- mutagenic call (Test System: E. COLI, Strain/Indicator: WP2 UVRA, Metabolic Activation: NONE, Method: PREINCUBATION): inactive; negative
- mutagenic call (Test System: E. COLI, Strain/Indicator: WP2 UVRA, Metabolic Activation: NONE, Method: STANDARD PLATE): inactive; negative
- mutagenic call (Test System: E. COLI, Strain/Indicator: WP2 UVRA, Metabolic Activation: RAT, LIVER, S-9, AROCLOR 1254, Method: PREINCUBATION): inactive; negative
- mutagenic call (Test System: E. COLI, Strain/Indicator: WP2 UVRA, Metabolic Activation: RAT, LIVER, S-9, AROCLOR 1254, Method: STANDARD PLATE): inactive; negative
- mutagenic call (Test System: E. COLI, Strain/Indicator: WP2 UVRA, Metabolic Activation: RAT, LIVER, S-9, Method: PREINCUBATION): inactive; negative
- mutagenic call (Test System: E. COLI, Strain/Indicator: WP2 UVRA, Metabolic Activation: RAT, LIVER, S-9, Method: STANDARD PLATE): inactive; negative

SMILES: Cc1ccc2c(c1)C(C)c1cc(C)ccc1-2
- mutagenic call (Test System: AMES SALMONELLA TYPHIMURIUM, Strain/Indicator: TA98, Metabolic Activation: RAT, LIVER, S-9, AROCLOR 1254, Method: STANDARD PLATE): inactive; negative
- mutagenic call (Test System: AMES SALMONELLA TYPHIMURIUM, Strain/Indicator: TA100, Metabolic Activation: RAT, LIVER, S-9, AROCLOR 1254, Method: STANDARD PLATE): inactive; negative
